Results from ChEMBL document CHEMBL5291721, “A preclinical secondary pharmacology resource illuminates target-adverse drug reaction associations of marketed drugs” (Nat Commun, 2023).

Tests used:
[1] = target: Voltage-dependent L-type calcium channel subunit alpha-1C (Rattus norvegicus, UniProt P22002); type: functional
[2] = target: T1, Estrogen receptor (Homo sapiens, UniProt P03372)
T1 sequence (P03372 whole entry): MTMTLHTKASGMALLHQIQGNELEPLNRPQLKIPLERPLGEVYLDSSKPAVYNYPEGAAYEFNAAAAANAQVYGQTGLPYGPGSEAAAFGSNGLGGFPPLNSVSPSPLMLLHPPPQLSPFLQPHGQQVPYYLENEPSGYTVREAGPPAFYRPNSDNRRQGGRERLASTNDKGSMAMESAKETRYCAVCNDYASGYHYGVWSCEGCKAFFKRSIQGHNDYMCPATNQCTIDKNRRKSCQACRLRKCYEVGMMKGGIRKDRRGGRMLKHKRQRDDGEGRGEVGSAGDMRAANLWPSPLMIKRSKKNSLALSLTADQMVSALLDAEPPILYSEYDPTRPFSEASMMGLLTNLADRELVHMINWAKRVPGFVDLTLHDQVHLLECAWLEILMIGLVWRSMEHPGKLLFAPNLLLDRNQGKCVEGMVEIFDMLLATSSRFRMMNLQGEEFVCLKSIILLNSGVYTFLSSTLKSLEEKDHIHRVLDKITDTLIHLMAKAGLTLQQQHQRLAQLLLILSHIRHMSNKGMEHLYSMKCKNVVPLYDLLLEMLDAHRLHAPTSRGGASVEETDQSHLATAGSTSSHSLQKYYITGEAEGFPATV

[3] = target: T2, B2 bradykinin receptor (Homo sapiens, UniProt P30411)
T2 sequence (P30411 whole entry): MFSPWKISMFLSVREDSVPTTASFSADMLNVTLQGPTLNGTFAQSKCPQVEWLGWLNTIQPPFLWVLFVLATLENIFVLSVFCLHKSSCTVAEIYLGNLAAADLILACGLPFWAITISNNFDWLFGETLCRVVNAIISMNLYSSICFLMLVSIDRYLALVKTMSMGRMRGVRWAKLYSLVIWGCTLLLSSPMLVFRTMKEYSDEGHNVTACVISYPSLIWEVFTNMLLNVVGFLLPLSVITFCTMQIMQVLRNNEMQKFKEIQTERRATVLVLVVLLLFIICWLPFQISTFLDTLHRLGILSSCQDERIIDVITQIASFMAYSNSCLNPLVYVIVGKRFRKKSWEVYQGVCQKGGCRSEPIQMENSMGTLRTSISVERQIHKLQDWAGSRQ

[4] = target: Vasopressin V1a receptor (Homo sapiens, UniProt P37288)
[5] = target: T3, 5-hydroxytryptamine receptor 2B (Homo sapiens, UniProt P41595); type: functional, cell-based
[6] = target: Histamine H1 receptor (Homo sapiens, UniProt P35367)
[7] = target: 3',5'-cyclic-AMP phosphodiesterase 4D (Homo sapiens, UniProt Q08499); type: functional
[8] = target: Beta-1 adrenergic receptor (Homo sapiens, UniProt P08588); type: functional
[9] = target: Gamma-aminobutyric acid receptor subunit alpha-1 (Rattus norvegicus, UniProt P62813); type: functional
[10] = target: T3, 5-hydroxytryptamine receptor 2B; type: functional, cell-based; remark: listed apart in the source
[11] = target: Cannabinoid receptor 1 (Homo sapiens, UniProt P21554); type: functional, cell-based
[12] = target: T4, Muscarinic acetylcholine receptor M2 (Homo sapiens, UniProt P08172); type: functional, cell-based
T4 sequence (P08172 whole entry): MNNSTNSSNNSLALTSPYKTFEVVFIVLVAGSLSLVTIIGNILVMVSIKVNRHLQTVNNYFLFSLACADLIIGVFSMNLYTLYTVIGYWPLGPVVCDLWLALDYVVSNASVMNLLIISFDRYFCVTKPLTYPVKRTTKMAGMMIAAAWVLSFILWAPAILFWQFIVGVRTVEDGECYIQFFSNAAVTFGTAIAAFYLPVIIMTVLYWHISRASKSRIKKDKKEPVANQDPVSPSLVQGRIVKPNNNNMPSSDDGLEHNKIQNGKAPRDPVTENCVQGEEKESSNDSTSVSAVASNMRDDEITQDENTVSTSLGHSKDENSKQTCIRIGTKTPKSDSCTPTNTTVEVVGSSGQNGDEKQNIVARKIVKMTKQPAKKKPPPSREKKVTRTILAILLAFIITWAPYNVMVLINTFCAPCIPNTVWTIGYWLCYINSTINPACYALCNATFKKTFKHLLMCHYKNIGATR

[13] = target: T5, Alpha-2A adrenergic receptor (Homo sapiens, UniProt P08913); type: functional, cell-based
T5 sequence (P08913 whole entry): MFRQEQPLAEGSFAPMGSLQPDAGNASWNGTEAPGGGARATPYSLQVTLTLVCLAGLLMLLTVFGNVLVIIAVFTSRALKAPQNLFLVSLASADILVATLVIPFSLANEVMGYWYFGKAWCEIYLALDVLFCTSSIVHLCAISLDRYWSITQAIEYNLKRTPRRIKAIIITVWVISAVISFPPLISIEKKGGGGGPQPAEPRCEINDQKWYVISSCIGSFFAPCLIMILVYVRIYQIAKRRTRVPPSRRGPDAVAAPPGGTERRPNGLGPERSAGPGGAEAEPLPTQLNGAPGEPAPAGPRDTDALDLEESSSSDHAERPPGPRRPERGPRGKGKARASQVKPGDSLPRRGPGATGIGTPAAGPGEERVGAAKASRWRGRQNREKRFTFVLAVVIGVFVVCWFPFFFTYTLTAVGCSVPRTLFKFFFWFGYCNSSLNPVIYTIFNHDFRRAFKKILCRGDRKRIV

[14] = target: T6, 5-hydroxytryptamine receptor 1A (Homo sapiens, UniProt P08908); type: functional, cell-based
T6 sequence (P08908 whole entry): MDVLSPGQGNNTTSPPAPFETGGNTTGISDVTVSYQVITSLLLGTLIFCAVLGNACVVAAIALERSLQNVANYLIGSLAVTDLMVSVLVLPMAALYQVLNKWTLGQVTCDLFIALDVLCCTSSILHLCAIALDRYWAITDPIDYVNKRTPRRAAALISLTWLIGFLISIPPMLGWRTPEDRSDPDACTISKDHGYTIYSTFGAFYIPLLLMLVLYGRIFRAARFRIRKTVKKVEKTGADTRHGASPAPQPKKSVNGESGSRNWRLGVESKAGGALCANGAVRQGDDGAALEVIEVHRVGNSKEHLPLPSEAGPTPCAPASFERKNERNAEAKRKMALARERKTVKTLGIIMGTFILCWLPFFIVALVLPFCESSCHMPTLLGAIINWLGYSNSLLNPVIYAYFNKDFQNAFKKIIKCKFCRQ
Further: assay procedure not described here.

Chain of Vasopressin V1a receptor (P37288 whole entry): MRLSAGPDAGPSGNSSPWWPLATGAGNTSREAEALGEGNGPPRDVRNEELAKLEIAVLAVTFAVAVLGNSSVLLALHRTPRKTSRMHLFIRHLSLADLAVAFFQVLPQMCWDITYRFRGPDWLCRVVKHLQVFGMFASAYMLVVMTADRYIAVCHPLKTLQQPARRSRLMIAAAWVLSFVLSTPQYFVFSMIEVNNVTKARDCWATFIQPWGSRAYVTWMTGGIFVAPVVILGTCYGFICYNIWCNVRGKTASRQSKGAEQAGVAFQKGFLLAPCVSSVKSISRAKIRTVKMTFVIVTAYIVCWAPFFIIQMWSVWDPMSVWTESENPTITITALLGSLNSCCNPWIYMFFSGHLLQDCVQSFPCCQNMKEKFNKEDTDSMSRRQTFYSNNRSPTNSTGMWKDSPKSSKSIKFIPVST
Chain of Histamine H1 receptor (P35367 whole entry): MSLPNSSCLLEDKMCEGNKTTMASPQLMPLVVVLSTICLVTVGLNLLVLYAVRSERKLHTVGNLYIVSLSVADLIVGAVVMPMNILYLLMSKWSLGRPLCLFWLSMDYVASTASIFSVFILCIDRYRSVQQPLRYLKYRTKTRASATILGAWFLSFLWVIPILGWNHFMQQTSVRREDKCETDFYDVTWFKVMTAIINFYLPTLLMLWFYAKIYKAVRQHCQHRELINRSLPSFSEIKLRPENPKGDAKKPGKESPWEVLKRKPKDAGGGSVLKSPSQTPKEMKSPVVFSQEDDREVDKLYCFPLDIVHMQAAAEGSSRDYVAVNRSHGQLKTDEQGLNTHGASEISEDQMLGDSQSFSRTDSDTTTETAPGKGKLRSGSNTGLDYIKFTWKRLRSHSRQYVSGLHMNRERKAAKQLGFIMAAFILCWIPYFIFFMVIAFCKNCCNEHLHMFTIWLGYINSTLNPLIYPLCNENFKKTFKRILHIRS
Chain of Beta-1 adrenergic receptor (P08588 whole entry): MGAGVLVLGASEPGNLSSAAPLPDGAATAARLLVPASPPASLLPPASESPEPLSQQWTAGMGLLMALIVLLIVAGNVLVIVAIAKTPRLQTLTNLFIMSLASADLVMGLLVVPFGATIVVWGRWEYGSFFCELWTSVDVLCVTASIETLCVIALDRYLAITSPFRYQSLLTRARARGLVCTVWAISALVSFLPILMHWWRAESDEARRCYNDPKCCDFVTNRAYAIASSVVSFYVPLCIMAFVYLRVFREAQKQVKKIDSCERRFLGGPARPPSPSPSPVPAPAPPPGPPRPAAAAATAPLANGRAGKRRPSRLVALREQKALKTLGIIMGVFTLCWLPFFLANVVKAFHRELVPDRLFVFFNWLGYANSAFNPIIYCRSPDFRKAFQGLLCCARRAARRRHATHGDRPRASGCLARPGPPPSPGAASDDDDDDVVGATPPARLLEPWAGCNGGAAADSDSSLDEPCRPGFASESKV
T3 sequence (P41595 whole entry): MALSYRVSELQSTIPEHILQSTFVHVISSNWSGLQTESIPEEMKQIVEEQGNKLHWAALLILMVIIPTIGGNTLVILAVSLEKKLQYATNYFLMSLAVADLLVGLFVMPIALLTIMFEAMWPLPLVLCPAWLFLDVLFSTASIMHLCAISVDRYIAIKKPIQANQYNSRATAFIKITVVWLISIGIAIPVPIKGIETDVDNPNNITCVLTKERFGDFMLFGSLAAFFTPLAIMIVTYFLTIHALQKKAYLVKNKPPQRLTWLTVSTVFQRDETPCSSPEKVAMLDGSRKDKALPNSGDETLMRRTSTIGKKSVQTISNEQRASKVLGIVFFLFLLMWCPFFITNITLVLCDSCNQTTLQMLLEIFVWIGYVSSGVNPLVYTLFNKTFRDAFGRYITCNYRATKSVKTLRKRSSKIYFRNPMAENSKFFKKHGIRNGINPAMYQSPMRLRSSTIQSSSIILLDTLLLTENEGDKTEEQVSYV
Chain of Cannabinoid receptor 1 (P21554 whole entry): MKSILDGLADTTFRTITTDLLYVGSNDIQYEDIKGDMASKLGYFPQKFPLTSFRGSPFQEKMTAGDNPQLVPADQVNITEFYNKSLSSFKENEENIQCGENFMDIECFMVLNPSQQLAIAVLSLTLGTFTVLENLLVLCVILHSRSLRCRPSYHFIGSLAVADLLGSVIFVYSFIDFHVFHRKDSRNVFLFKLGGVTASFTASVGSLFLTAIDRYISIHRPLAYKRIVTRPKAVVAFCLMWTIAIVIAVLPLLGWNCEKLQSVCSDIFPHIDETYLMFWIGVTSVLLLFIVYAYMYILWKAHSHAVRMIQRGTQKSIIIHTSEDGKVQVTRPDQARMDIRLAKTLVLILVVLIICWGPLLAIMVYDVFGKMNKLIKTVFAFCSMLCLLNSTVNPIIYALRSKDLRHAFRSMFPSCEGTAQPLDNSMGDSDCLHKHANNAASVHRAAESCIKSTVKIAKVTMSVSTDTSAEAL
Chain of Gamma-aminobutyric acid receptor subunit alpha-1 (P62813 whole entry): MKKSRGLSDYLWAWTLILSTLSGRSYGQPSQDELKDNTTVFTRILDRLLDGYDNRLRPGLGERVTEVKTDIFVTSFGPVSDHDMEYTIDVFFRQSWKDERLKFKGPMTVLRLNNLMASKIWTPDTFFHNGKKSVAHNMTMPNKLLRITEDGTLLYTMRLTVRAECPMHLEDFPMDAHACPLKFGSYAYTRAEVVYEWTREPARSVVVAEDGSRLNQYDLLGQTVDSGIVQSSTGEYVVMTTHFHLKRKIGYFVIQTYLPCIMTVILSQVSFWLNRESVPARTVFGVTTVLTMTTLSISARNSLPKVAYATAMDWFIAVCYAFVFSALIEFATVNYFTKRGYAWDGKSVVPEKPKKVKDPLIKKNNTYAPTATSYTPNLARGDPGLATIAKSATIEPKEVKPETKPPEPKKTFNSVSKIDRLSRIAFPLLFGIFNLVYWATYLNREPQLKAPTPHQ
Chain of Voltage-dependent L-type calcium channel subunit alpha-1C (P22002 whole entry): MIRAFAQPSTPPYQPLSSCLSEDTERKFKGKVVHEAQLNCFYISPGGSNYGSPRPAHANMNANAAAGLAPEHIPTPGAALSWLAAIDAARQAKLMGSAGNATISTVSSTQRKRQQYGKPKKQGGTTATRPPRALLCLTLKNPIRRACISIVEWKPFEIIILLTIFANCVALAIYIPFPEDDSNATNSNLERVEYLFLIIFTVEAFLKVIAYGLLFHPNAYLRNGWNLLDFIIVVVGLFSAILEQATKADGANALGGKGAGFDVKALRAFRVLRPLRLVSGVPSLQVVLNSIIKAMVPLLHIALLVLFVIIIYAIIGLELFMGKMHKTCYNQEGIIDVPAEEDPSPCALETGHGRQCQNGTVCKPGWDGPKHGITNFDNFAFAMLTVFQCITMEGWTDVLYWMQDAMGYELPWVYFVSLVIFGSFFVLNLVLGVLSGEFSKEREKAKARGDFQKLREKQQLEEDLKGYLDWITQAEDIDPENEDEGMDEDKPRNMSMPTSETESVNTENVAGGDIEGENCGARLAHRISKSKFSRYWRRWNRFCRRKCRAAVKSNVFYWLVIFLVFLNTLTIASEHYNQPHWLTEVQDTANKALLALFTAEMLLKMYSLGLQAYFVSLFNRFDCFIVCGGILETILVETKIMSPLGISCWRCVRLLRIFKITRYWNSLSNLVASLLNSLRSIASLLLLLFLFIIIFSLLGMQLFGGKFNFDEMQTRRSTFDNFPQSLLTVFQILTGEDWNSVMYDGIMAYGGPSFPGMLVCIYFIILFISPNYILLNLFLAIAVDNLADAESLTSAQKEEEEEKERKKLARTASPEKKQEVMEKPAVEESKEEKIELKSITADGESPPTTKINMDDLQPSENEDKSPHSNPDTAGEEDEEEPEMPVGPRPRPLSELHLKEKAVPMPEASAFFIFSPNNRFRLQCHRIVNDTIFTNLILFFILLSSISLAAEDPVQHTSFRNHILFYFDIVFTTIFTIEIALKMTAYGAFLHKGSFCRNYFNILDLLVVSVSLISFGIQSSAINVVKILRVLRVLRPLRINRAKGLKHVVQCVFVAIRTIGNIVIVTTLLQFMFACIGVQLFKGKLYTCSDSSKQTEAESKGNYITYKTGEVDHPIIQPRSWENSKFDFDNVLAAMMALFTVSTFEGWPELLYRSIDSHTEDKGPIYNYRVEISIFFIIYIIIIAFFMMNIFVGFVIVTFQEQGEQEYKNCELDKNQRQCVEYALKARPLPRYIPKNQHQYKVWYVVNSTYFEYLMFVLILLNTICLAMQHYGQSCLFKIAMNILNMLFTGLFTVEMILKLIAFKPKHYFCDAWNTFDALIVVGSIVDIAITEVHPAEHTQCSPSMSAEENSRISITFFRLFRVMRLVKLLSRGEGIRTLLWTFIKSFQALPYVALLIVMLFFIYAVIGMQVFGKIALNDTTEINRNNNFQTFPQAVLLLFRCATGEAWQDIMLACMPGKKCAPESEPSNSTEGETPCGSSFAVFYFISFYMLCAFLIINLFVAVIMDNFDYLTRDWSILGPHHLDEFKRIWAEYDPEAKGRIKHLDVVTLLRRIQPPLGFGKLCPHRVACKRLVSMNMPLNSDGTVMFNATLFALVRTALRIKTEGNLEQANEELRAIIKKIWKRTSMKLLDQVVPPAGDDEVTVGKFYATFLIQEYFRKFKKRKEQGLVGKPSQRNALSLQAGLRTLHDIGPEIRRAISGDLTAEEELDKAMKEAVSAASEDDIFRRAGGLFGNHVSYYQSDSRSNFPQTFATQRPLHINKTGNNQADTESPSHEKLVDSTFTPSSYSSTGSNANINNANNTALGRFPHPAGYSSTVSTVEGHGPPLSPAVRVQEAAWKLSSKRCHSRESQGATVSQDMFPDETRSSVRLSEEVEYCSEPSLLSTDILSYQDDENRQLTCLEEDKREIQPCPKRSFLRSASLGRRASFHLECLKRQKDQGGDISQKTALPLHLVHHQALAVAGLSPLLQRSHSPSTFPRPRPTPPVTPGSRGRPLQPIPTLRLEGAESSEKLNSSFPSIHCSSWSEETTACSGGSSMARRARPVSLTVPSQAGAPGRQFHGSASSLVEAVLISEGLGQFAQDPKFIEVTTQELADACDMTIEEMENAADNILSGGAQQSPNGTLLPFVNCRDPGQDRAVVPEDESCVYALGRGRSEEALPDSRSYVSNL

Row | Compound | AC50 [1] | AC50 [2] | AC50 [3] | AC50 [4] | AC50 [5] | AC50 [6] | AC50 [7] | AC50 [8] | AC50 [9] | AC50 [10] | AC50 [11] | AC50 [12] | AC50 [13] | AC50 [14]
1 | CCN(CC)CCCN(c1ccccc1)C1Cc2ccccc2C1 [APRINDINE] | > 10 µM | > 30 µM | > 30 µM | > 30 µM | > 30 µM | 1.18 µM | > 30 µM | > 30 µM | > 30 µM | > 30 µM | > 30 µM | > 30 µM | > 30 µM | > 30 µM
2 | CN1C(=O)CN=C(c2ccccc2F)c2cc([N+](=O)[O-])ccc21 [FLUNITRAZEPAM] | > 10 µM | > 30 µM | > 30 µM | > 10 µM | > 10 µM | > 10 µM | > 30 µM | > 10 µM | 0.0055 µM | > 10 µM | > 30 µM | > 10 µM | > 10 µM | > 10 µM
3 | Oc1cc(O)c2c(c1)O[C@H](c1ccc(O)c(O)c1)[C@@H](O)C2 [CIANIDANOL] | > 10 µM | > 30 µM | > 30 µM | > 30 µM | > 10 µM | > 10 µM | > 30 µM | > 10 µM | > 10 µM | > 10 µM | > 30 µM | > 10 µM | > 10 µM | > 10 µM
4 | CC1NCCOC1c1ccccc1 (configuration not stated) [PHENMETRAZINE] | > 10 µM | > 30 µM | > 30 µM | > 30 µM | > 10 µM | > 10 µM | > 30 µM | > 10 µM | > 10 µM | 23 µM | > 30 µM | > 10 µM | > 10 µM | > 10 µM
5 | Cc1ccc(-c2ncc(Cl)cc2-c2ccc(S(C)(=O)=O)cc2)cn1 [ETORICOXIB] | > 10 µM | > 30 µM | > 30 µM | > 30 µM | > 10 µM | > 10 µM | 9 µM | > 10 µM | > 10 µM | > 10 µM | > 30 µM | > 10 µM | > 10 µM | > 10 µM
6 | CN(C)CCOCC(=O)NC12CC3CC(CC(C3)C1)C2 [TROMANTADINE] | > 30 µM | > 30 µM | > 30 µM | > 30 µM | > 30 µM | > 30 µM | > 30 µM | > 30 µM | > 30 µM | > 30 µM | > 30 µM | > 30 µM | > 30 µM | > 30 µM
7 | CC(C)(N)Cc1ccccc1 [PHENTERMINE] | > 10 µM | > 30 µM | > 30 µM | > 30 µM | > 10 µM | > 10 µM | > 30 µM | > 10 µM | > 10 µM | > 10 µM | > 30 µM | > 10 µM | > 10 µM | > 10 µM
8 | TEPRENONE | > 10 µM | > 30 µM | > 30 µM | > 30 µM | > 10 µM | > 10 µM | > 30 µM | > 30 µM | > 10 µM | > 10 µM | > 30 µM | > 10 µM | > 10 µM | > 30 µM
9 | Cc1ccc(S(=O)(=O)NC(=O)N[C@H]2[C@H]3CC[C@@](C)([C@H]2O)C3(C)C)cc1 [GLIBORNURIDE] | > 30 µM | > 30 µM | > 30 µM | > 30 µM | > 30 µM | > 30 µM | > 30 µM | > 30 µM | > 30 µM | > 30 µM | > 30 µM | > 30 µM | > 30 µM | > 30 µM
10 | CCCO[C@H]1[C@@H]([C@@H](COCc2ccc(Cl)cc2)OCc2ccc(Cl)cc2)OC(OCC)[C@@H]1O (some centres not stated) [CLOBENOSIDE] | > 30 µM | > 10 µM | > 30 µM | > 30 µM | > 30 µM | > 30 µM | > 30 µM | > 30 µM | > 30 µM | > 30 µM | > 30 µM | > 30 µM | > 30 µM | > 30 µM
11 | CC1=C(/C=C/C(C)=C/C=C/C(C)=C/C(=O)Oc2c(C)c(C)c3c(c2C)CCC(C)(CCCC(C)CCCC(C)CCCC(C)C)O3)C(C)(C)CCC1 (configuration not stated) [TRETINOIN TOCOFERIL] | > 30 µM | > 30 µM | > 30 µM | > 30 µM | > 30 µM | > 30 µM | > 30 µM | > 30 µM | > 30 µM | > 30 µM | > 30 µM | > 30 µM | > 30 µM | > 30 µM
12 | C[C@@H](Cc1ccccc1)N(C)Cc1ccccc1 [BENZPHETAMINE] | > 10 µM | > 10 µM | > 10 µM | > 10 µM | > 10 µM | > 10 µM | > 30 µM | > 10 µM | > 10 µM | > 10 µM | > 30 µM | > 10 µM | > 10 µM | > 10 µM
13 | SITOSTEROLS | > 30 µM | > 30 µM | > 30 µM | > 30 µM | > 30 µM | > 30 µM | > 10 µM | > 30 µM | > 30 µM | > 30 µM | > 30 µM | > 30 µM | > 30 µM | > 30 µM
